Results on 1 molecule are retold here after patent EP0278940A2, “Hepatitis B virus surface antigens and hybrid antigens containing them” (SMITHKLINE BIOLOGICALS S.A., priority 1987, dated 1988).

The test has as its system synthetic preS2 peptide. The test is described as follows: Immunogenicity in mice: anti-preS2 antibodies by solid phase RIA on synthetic preS2 peptide. The class given is in vivo, mice: Balb/c (H₂-d) and NMRl (H₂-Q). The note with it: Balb/c and NMRl mice, I.P., one month, pooled sera. Here is the method:
The immunogenicity of particles prepared from extracts of cells containing pRIT12660 (Example 16) was studied in 2 strains of mice: Balb/c (H₂-d) and NMRl (H₂-Q). The particles were absorbed on Al(OH)₃ before injection and the mice (5 mice/group) were injected intraperitoneally (I.P.) with 0.3 µg of RIA reacting material. One month after the immunization, the mice were bled and the sera from the mice of the same group were pooled. The titer of anti-S antibodies was determined in the pools by using the AUSAB kit (Abbott Labs) and the WHO reference. The titers were converted in mIU/ml by using the Hollinger formula (Hollinger et al., in Szmuness et al., eds. Viral Hepatitis, Philadelphia : Franklin Institute Press, 451-466, 1982). The anti-preS2 antibodies were determined using a solid phase assay (RIA) in which the synthetic preS2 peptide given in Example 23, is absorbed on plastic and bound antibodies were detected with a goat anti-mouse IgG labelled with ¹²⁵I. […] PreS determinants enhance the response to the S determinants. This enhancing effect is not shown if the preS2 synthetic peptide is injected together with particles which lack the preS2.

Regarding `CSCC[C@H](N)C(=O)N[C@@H](CCC(=O)O)C(=O)N[C@@H](Cc1c[nH]c2ccccc12)C(=O)N[C@@H](CC(N)=O)C(=O)N[C@@H](CO)C(=O)N[C@H](C(=O)N[C@@H](C)C(=O)N[C@@H](Cc1ccccc1)C(=O)N[C@@H](Cc1c[nH]cn1)C(=O)N[C@@H](CCC(N)=O)C(=O)N[C@@H](C)C(=O)N[C@@H](CC(C)C)C(=O)N[C@@H](CCC(N)=O)C(=O)N[C@@H](CC(=O)O)C(=O)N1CCC[C@H]1C(=O)N[C@@H](CCCNC(=N)N)C(=O)N[C@H](C(=O)N[C@@H](CCCNC(=N)N)C(=O)NCC(=O)N[C@@H](CC(C)C)C(=O)N[C@@H](Cc1ccc(O)cc1)C(=O)N[C@@H](CC(C)C)C(=O)N1CCC[C@H]1C(=O)N[C@@H](C)C(=O)NCC(=O)N[C@@H](CS)C(=O)O)C(C)C)[C@@H](C)O` [preS2 synthetic peptide], the “induction of anti-preS2 peptide antibodies” value is given as “unable to elicit anti-preS2 antibodies”.
